Laboratory results published in US20220144812A1, “QUINOLINE DERIVATIVES AND THEIR USE FOR THE TREATMENT OF CANCER” (Epizyme, Inc., priority 2019, published 2022).

What was measured:
[1] = test system: H3K18Ac in HB-CLS-2 cells; test: H3K18AC in-cell western (ICW) assay; type: cell-based; details: H3K18Ac in-cell western; read-out: CREBBP ICW IC50
Procedure, shortened: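 HB-CLS-2 cells seeded 16–24 hours before 2 hr compound treatment at 37° C, 5% CO2, then methanol-fixed. H3K18Ac detected with rabbit monoclonal primary (overnight, 4° C) and 800CW anti-rabbit secondary; DRAQ5 stained DNA. Plates imaged at 700 and 800 nm for integrated intensity; IC50 in μM.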

CREBBP (1084-1701) = target: T1, CREBBP (1084-1701) (Homo sapiens, UniProt Q92793); test: Biochemical assay for CREBBP (1084-1701), SAMDI; details: SAMDI, read-out: CREBBP Biochemistry IC50
T1 construct: measured in the following biochemical assay using CREBBP (1084-1701); purchased
T1 sequence (Q92793 1084-1701): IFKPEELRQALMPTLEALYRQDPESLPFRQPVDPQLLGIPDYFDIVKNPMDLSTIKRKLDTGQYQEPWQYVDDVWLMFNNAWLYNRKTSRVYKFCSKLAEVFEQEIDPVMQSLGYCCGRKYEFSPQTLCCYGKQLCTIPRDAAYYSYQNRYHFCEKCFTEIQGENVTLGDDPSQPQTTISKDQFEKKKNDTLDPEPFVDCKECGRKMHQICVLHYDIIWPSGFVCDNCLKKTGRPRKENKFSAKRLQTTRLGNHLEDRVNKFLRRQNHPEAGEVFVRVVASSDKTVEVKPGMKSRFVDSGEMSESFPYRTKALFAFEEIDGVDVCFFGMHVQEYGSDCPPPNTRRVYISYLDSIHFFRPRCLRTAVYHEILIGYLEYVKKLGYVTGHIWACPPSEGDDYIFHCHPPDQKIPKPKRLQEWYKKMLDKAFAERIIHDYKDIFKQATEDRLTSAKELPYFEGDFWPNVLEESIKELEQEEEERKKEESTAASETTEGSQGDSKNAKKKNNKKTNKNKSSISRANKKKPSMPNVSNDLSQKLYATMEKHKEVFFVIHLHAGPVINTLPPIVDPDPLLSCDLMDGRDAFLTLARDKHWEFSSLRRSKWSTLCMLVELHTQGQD
Procedure, shortened: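 CREBBP (1084-1701) preincubated with compound 30 min at RT, then substrate mix (biotin-H3 11-25 K14R/K23R peptide, acetyl-CoA) added for 30 min at RT. Reaction stopped with formic acid, neutralised with sodium bicarbonate. Peptide acetylation read by SAMDI mass spectrometry to derive IC50.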

639V bladder cell line = test: 7-day proliferation assay, 639V; type: cell-based; details: Homo sapiens, 168 h, 7 days, CellTiter-Glo
Procedure: (§1) This example describes methods and materials for 7-day proliferation assay.
(§2) A total of 22 bladder cell lines were used (see table below). Cell lines were cultured in recommended growth media according to supplier.
(§3) Cells were in culture media at a density optimized for a 7-day culture in a final volume of 150 μL per well in white opaque 96-well plates. Cells were allowed to adhere for several hours (4-6 h) then compounds were added with HPD300 Digital Dispenser and placed into the incubator at 37° C., 5% CO2 for 7 days. After 7 days incubation, 100 μL of CellTiter-Glo® Luminescent Cell Viability Assay (Promega-G7573) reagents were added per well. After 20 minutes incubation luminescence was measured in plate reader. IC50 were calculated from a non-linear logarithmic growth curve.
(§4) IC50 values (nanomolar (nM)) are summarized in the table below, which depicts the inhibitory effect of certain compounds in bladder cell lines.

VMCUB1 bladder cell line = test: 7-day proliferation assay, VMCUB1; type: cell-based; details: Homo sapiens, VM-CUB-1, 168 h; VMCUB1, 7 days, CellTiter-Glo
Procedure: as §1, §2, §3, §4

KU1919 bladder cell line = test: 7-day proliferation assay, KU1919; type: cell-based; details: Homo sapiens, KU-19-19, 168 h; KU1919, 7 days, CellTiter-Glo
Procedure: as §1, §2, §3, §4

BC3C bladder cell line = test: 7-day proliferation assay, BC3C; type: cell-based; details: 168 h, 7 days, CellTiter-Glo
Procedure: as §1, §2, §3, §4

CAL29 bladder cell line = test: 7-day proliferation assay, CAL29; type: cell-based; details: 168 h; CAL29, 7 days, CellTiter-Glo
Procedure: as §1, §2, §3, §4

RT112 bladder cell line = test: 7-day proliferation assay, RT112; type: cell-based; details: Homo sapiens, RT-112, 168 h; RT112, 7 days, CellTiter-Glo
Procedure: as §1, §2, §3, §4

SW780 bladder cell line = test: 7-day proliferation assay, SW780; type: cell-based; details: Homo sapiens, 168 h; SW780, 7 days, CellTiter-Glo
Procedure: as §1, §2, §3, §4

| IC50 [1] | IC50 (CREBBP (1084-1701)) | IC50 (SW780 bladder cell line) | Structure (SMILES) | IC50 (639V bladder cell line) | IC50 (VMCUB1 bladder cell line) | IC50 (KU1919 bladder cell line) | IC50 (BC3C bladder cell line) | IC50 (CAL29 bladder cell line) | IC50 (RT112 bladder cell line) |
| --- | --- | --- | --- | --- | --- | --- | --- | --- | --- |
| 0.0231 µM | 0.0171 µM | 0.126 µM | CCn1ncc(CN(C)C(=O)c2cc(-c3ccc(NC4CN(C)C4)c(C)n3)nc3ccc(Cl)cc23)c1C [Compound 480] | 0.057 µM | 0.116 µM | 0.0905 µM | 10 µM | 0.523 µM | 0.198 µM |
| 0.0854 µM | 0.0429 µM | 0.168 µM | CCc1ncc(CN(C)C(=O)c2cc(-c3ccc(NCCN(C)C)c(C)n3)nc3ccc(Cl)cc23)n1C [Compound 577] | 0.1 µM | 0.051 µM | 0.102 µM | 1.19 µM | 1.2 µM | 0.078 µM |
| 0.04 µM | 0.021 µM | 0.228 µM | CCn1ncc(CN(C)C(=O)c2cc(-c3ccc(NCCNC)c(C)n3)nc3ccc(Cl)cc23)c1C [Compound 3, 6-chloro-N-[(1-ethyl-5-methyl-1H-pyrazol-4-yl)methyl]-N-methyl-2-(6-methyl-5-{[2-(methylamino)ethyl]amino}pyridin-2-yl)quinoline-4-carboxamide] | 0.04 µM | 0.069 µM | 0.145 µM | 5.1 µM | 1.99 µM | 0.111 µM |
| 0.0483 µM | 0.0328 µM | 0.322 µM | CCc1noc(CN(C)C(=O)c2cc(-c3ccc(NCCNC)c(C)n3)nc3ccc(Cl)cc23)c1C [Compound 537] | 0.0995 µM | 0.117 µM | 0.217 µM | 4.06 µM | 0.704 µM | 0.37 µM |
